Reference: patent publication US11491155B2, “Salt of a pyrimido[6,1-A]isoquinolin-4-one compound” (VERONA PHARMA PLC, priority 2015, dated 2022)
Where two headings read alike, the source gives them in different places.

Tests used:
[1] = Aerosol performance of DPI formulations (Cyclohaler, NGI); assay type: physicochemical; settings: for †Measured Mass of 1% w/w Blend Delivered per capsule / ††RPL554 Emitted (μg) per capsule (B): Cyclohaler; for †Measured Mass of 1% w/w Blend Delivered per capsule: 5 capsules containing 20 mg powder blend, mass from weight change of capsule-loaded device; for ††RPL554 Emitted (μg) per capsule (B): NGI, mass determined from HPLC analysis of recovered samples; for ††RPL554 Emitted (μg) per capsule (B) / Calculated RPL554 Content (μg) per capsule (A): as RPL554 base; for Calculated RPL554 Content (μg) per capsule (A): calculated from delivered blend mass and measured blend content
Procedure: Capsules were hand filled with 20 mg of the 1% w/w RPL554 free base or salt variants: lactose blends, i.e. 200 μg salt per capsule, the fill weight of each capsule was recorded. Due to differences in the molecular weights of the RPL554 salt forms, the amount of RPL554 emitted per actuation varied as a function of molecular weight. The formulations were prepared with no adjustment for differences in molecular weight of the salts.
The powders were delivered via the Cyclohaler® DPI (PCH Pharmachemie, BV, The Netherlands). The Cyclohaler® DPI is a low resistance device and was operated at a flow rate of 90 L/min for 2.7 seconds. The cut off diameters for the NGI collection stages were calculated for the 90 L/min flow rate using the NGI User Guide (MSP Corporation, 2008).
The ED, FPD and FPF were determined from inertial impaction tests performed following the deposition of 5 capsules of each formulation into the NGI. For each capsule tested the combined weight of the Cyclohaler® and capsule was determined before and after operation to check that the dose had been delivered. The NGI was fitted with a pre-separator for these determinations. The central cup of the pre-separator was filled with 15 mL of diluent. Following deposition, the solution was recovered in a 20 mL volumetric flask and made up to volume with diluent. RPL554 was quantitatively recovered from the device, induction port and each of the NGI collection stages with 10 mL of diluent.
The volume of diluent used for each sample was selected to ensure RPL554 concentrations were above the limit of quantitation.

[2] = Solubility of RPL554 and salts in pMDI propellant systems; assay type: physicochemical
Procedure: Quantitative assessment of the solubility of RPL554 and salt variants in the propellant systems of selected pMDI formulations (three replicates of each formulation) was performed. pMDIs were directly coupled to an adaptor fitted with a 0.20 μm filter unit connected, in series to a 21 G needle, which was inserted via a rubber septum, into a cooled multi-dose glass vial. A 19 G filter needle was inserted through the septum to aid evaporation of propellant from the vial. Prior to the filtration process the vial was cooled in a mixture of dry ice and acetone to ensure that the pressure within the vial was reduced in order to facilitate collection of the output from the pMDI. Ten consecutive actuations of the pMDI were fired through the filter and collected in the vial. Between actuations the canister was shaken for approximately 10 seconds. The pMDI unit was weighed before and after the filtering procedure. The filtrate was stored at room temperature and allowed to evaporate to dryness.
Samples were recovered by carefully rinsing the inside of the vials with 1 mL of recovery solution before transfer to HPLC vials for analysis. The estimated % of RPL554 solubilised within the canister was calculated from the starting mass of RPL554 within the canisters, which in turn was calculated using the theoretical molecular weight values of the RPL554 free base and salt variants shown in Table 13. The theoretical molecular weight estimates of the salts were provided by Verona.

[3] = Physico-chemical characteristics of salt candidates: solubility in water, pH of aqueous suspension/solution, form post water maturation
Procedure: The physico-chemical characteristics of the salt candidates were determined.

[4] = RPL554 content and content uniformity of 1% w/w lactose powder blends; assay type: physicochemical; settings: for Measured Blend Content (% Theoretical): 1% w/w RPL554 variant: lactose powder blend, expressed as RPL554 base; for **Adjusted RPL554 Content per capsule: per 20 mg capsule of 1% w/w lactose blend, adjusted for measured blend content (% theoretical), as RPL554 base
Procedure: Batches (approximately 5 g) of 1% w/w RPL554 free base or salt variants: lactose blends were prepared. In brief, the RPL554 free base or salt plus a small quantity of lactose was passed through a 38 μm sieve. The sieved material plus the remaining lactose was mixed in a glass mortar prior to transfer to a stainless steel screw cap jar and further mixing (10 minutes at 46 rpm) conducted using a Turbula blender. The composition of the dry powder blend was 0.05 g API and 4.95 g lactose.
In order to determine the content uniformity of the blends, aliquots (approx. 20 mg) of powder were sampled from each blend, accurately weighed, and diluted to volume in 10 mL volumetric flasks with diluent. The flasks were sonicated for 3 minutes before samples were transferred to HPLC vials for analysis.

[5] = Primary particle size analysis by laser light diffraction (Mastersizer 2000); assay type: physicochemical; settings: micronised, mean n=3
Procedure: A Mastersizer 2000 fitted with a Scirocco 2000 dry powder dispersion unit (Malvern Instruments Ltd, UK) was used to analyse the primary particle size of the micronised RPL554 and salt variants. The salts (50 mg) were automatically sampled via a vibrating feed control at a feeder rate of 60% and dispersed in compressed air at a pressure of 3 bar.

[6] = Solubility of RPL554 salts in saline solutions, water and aqueous buffer solutions at 25° C. (HPLC); assay type: physicochemical; settings: 24 hours; for Solubility as RPL554 (mg/ml) in Water: deionised water
Procedure: The behaviour of salts of RPL554 were examined under the following conditions: • Phosphate buffered to pH 3.5 in saline, 0.9% w/w at 25° C. • Acetate buffered to pH 4.5 in saline, 0.9% w/w at 25° C. • Citro-Phosphate buffered to pH 4.5 in saline, 0.9% w/w at 25° C. • Phosphate buffered to pH 6.5 in saline, 0.9% w/w at 25° C. • Saline, 0.7, 0.9 and 1.1% w/w at 25° C. • Deionised water at 25° C.
RPL554 salts and RPL554, ca 50 mg, were suspended in the various aqueous media, 1 ml, with agitation at the specified temperatures for 24 hours. The solids were isolated and dried in vacuo at 45° C. The retained filtrates were examined by HPLC.
Additional RPL554 methane sulfonate salt, ca 50 mg, was charged to the water mixtures at 25° C. and 37.5° C. in order to afford a suspension. In all other cases, suspensions were obtained.
The solubility of the RPL554 was determined by HPLC using a single point calibration and is expressed as RPL554 and not as the salt and are detailed in Table 6 and Table 7 for the various conditions utilised.

[7] = Intrinsic dissolution of compressed tablet, pH 7.0, 37° C. (Sirius inForm); assay type: physicochemical; settings: for mass dissolved: initial peak; for Mass of salt (μg) dissolved after 2 hours, Average / Mass of salt (μg) dissolved after 2 hours, Test 1 / Mass of salt (μg) dissolved after 2 hours, Test 2: pH 7.0, 0.15 M NaCl, 37° C.
Procedure: The dissolution assay (pH-dependent sample dissolution) was investigated using the Sirius inForm.
Dissolution of a compressed tablet of the compound was monitored in a pH 7.0 aqueous dissolution experiment (0.15 M NaCl) at 37° C. using UV-absorption spectroscopy in 2 hour experiments. A tablet with a diameter of 3 mm, requiring approximate weights of 10 mg was compressed under a weight of 100 kg load force. Only one face of the tablet was exposed to the dissolution medium, which contained a 0.01 M acetate/phosphate buffer system to minimise perturbation of the experimental pH from dissolution of the drug.
Stirring of the solution was continuous and at a constant rate of 100 rpm. The absorption data was converted to absolute sample weights using previously determined, pH-dependent, molar extinction coefficients. An appropriate wavelength range was chosen to ensure that spectroscopic data with an absorption value of <1.3 was analysed, avoiding erroneous dissolution results due to saturation of the UV light source.

[8] = HFA 134a: 227: 10% Ethanol: 0.1% Tween
[9] = in HFA 134, listed as Free Base
[10] = in HFA 134 with Ethanol/Tween, listed as Free Base

Compound: COc1cc2c(cc1OC)-c1c/c(=N\c3c(C)cc(C)cc3C)n(CCNC(N)=O)c(=O)n1CC2 [Ethanesulfonate, RPL554 ethanesulfonate]
- †Measured Mass of 1% w/w Blend Delivered per capsule [1]: 20.18 mg
- ††RPL554 Emitted (μg) per capsule (B) [1]: 111.09 µg
- Calculated RPL554 Content (μg) per capsule (A) [1]: 162.00 µg
- Calculated RPL554 solubilised (%) ([2]; in HFA 134): 5.56%
- Calculated Solubilised RPL554 μg per 50 μL actuation ([2]; in HFA 134): 9.03 µg
- Solubility RPL554 ([2]; in HFA 134, BLQ = below limit of quantitation (0.06 μg/mL)): 126.81 µg/g
- Solubility RPL554 (μg/g) ([2]; in HFA 134, BLQ = below limit of quantitation (0.06 μg/mL), listed as ethanesulfonate): quantifiable levels of solubility
- Estimated RPL554 solubilised (%) ([2]; in HFA 134 with Ethanol/Tween): 10.96%
- Estimated Solubilised RPL554 μg per 50 μL actuation ([2]; in HFA 134 with Ethanol/Tween): 17.81 µg
- Solubility RPL554 ([2]; in HFA 134 with Ethanol/Tween): 266.59 µg/g
- Calculated RPL554 solubilised (%) ([2]; in HFA 227): BLQ
- Calculated Solubilised RPL554 μg per 50 μL actuation ([2]; in HFA 227): BLQ
- Solubility RPL554 (μg/g) ([2]; in HFA 227): BLQ
- pH of aqueous suspension/solution ([3]; listed as Ethane sulfonic): 3.04
- Measured Blend Content (% Theoretical) [4]: 98.79 % Theoretical
- **Adjusted RPL554 Content per capsule [4]: 160.55 µg
- D (0.1) (μm) [5]: 0.56 μm
- D (0.5) (μm) [5]: 1.43 μm
- D (0.9) (μm) [5]: 4.18 μm
- Solubility as RPL554 (mg/ml) in 0.7 w/w % Saline [6]: 1.62 mg/mL
- Solubility as RPL554 (mg/ml) in 0.9 w/w % Saline [6]: 0.79 mg/mL
- Solubility as RPL554 (mg/ml) in 1.1 w/w % Saline [6]: 1.27 mg/mL
- Solubility as RPL554 (mg/ml) in Water [6]: 21.37 mg/mL
- dissolution compared with free base / other salts ([7]; 2 hour experiments): higher dissolution than the rest of the salts
- mass dissolved ([7]; at 5.7 min): 600 µg
- mass dissolved ([7]; at 13 min): 700 µg
- Mass of salt (μg) dissolved after 2 hours, Average ([7]; listed as ethanesulfonate salt): 355 µg
- Mass of salt (μg) dissolved after 2 hours, Test 1 ([7]; listed as ethanesulfonate salt): 300 µg
- Mass of salt (μg) dissolved after 2 hours, Test 2 ([7]; listed as ethanesulfonate salt): 410 µg

Compound: COc1cc2c(cc1OC)-c1c/c(=N\c3c(C)cc(C)cc3C)n(CCNC(N)=O)c(=O)n1CC2 [RPL554, 9,10-dimethoxy-2-(2,4,6-trimethylphenylimino)-3-(N-carbamoyl-2-aminoethyl)-3,4,6,7-tetrahydro-2H-pyrimido[6,1-a]isoquinolin-4-one]
- †Measured Mass of 1% w/w Blend Delivered per capsule ([1]; listed as Free Base): 20.12 mg
- ††RPL554 Emitted (μg) per capsule (B) ([1]; listed as Free Base): 133.59 µg
- Calculated RPL554 Content (μg) per capsule (A) ([1]; listed as Free Base): 194.03 µg
- Estimated Solubilised RPL554 μg per 50 μL actuation [2, 8]: 1.06 µg
- Solubility RPL554 [2, 8]: 16.11 µg/g
- Estimated RPL554 solubilised (%) ([2]; HFA 134a: 227: 10% Ethanol: 0.1% Tween, listed as Free base): 0.53%
- Solubility RPL554 (μg/g) ([2]; in HFA 134, BLQ = below limit of quantitation (0.06 μg/mL), listed as Free Base): BLQ
- Calculated RPL554 solubilised (%) [2, 9]: BLQ
- Calculated Solubilised RPL554 μg per 50 μL actuation [2, 9]: BLQ
- Estimated RPL554 solubilised (%) [2, 10]: 0.56%
- Estimated Solubilised RPL554 μg per 50 μL actuation [2, 10]: 1.12 µg
- Solubility RPL554 [2, 10]: 16.45 µg/g
- Measured Blend Content (% Theoretical) ([4]; listed as Free Base): 96.44 % Theoretical
- **Adjusted RPL554 Content per capsule ([4]; listed as Free Base): 192.87 µg
- D (0.1) (μm) ([5]; listed as Free base): 0.58 μm
- D (0.5) (μm) ([5]; listed as Free base): 1.37 μm
- D (0.9) (μm) ([5]; listed as Free base): 3.00 μm
- Mass of salt (μg) dissolved after 2 hours, Average ([7]; listed as free base): 13.5 µg
- Mass of salt (μg) dissolved after 2 hours, Test 1 ([7]; listed as free base): 10.0 µg
- Mass of salt (μg) dissolved after 2 hours, Test 2 ([7]; listed as free base): 17.0 µg

Compound: COc1cc2c(cc1OC)-c1c/c(=N\c3c(C)cc(C)cc3C)n(CCNC(N)=O)c(=O)n1CC2 [Phosphate, RPL554 phosphate]
- pH of aqueous suspension/solution ([3]; listed as Phosphoric): 3.08
- Solubility as RPL554 (mg/ml) in 0.7 w/w % Saline [6]: 7.22 mg/mL
- Solubility as RPL554 (mg/ml) in 0.9 w/w % Saline [6]: 4.78 mg/mL
- Solubility as RPL554 (mg/ml) in 1.1 w/w % Saline [6]: 2.86 mg/mL
- Solubility as RPL554 (mg/ml) in Water [6]: 41.84 mg/mL

Compound: COc1cc2c(cc1OC)-c1c/c(=N\c3c(C)cc(C)cc3C)n(CCNC(N)=O)c(=O)n1CC2 [Sulfuric - ethanol solution]
- pH of aqueous suspension/solution [3]: 3.28
